{"source": "patent US8809367B2", "about": "“1-1-Oxo-1,2,3,4-tetrahydroisoquinolin-7-yl)urea derivatives as N-formyl peptide receptor like-1 (FPRL-1) receptor modulators” (Allergan, Inc., priority 2011, dated 2014)", "molecular_target": "T1, FPRL-1 (Homo sapiens, UniProt P25090)", "T1 construct": "expressed in transfected cells", "T1 sequence (P25090 1-351)": "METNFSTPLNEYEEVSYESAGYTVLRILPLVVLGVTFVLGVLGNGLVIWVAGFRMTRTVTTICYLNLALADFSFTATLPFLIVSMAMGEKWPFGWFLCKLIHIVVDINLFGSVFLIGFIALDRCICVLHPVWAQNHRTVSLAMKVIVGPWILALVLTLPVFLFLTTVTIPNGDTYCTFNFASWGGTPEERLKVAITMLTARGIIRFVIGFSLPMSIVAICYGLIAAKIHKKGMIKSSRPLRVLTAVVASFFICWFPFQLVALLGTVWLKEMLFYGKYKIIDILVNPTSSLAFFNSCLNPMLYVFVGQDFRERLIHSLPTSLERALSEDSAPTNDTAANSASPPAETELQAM", "assay": "compound-induced calcium activity on FLIPR Tetra in CHO-Ga16 cells stably expressing FPRL1", "format": "cell-based", "conditions": "for FPRL-1 Ga16-CHO (eff): efficacy value in brackets under EC50; for EC50: tested at 0.61 to 10,000 nM", "method": "CHO-Ga16 cells stably expressing FPRL1 were cultured in (F12, 10% FBS, 1% PSA, 400 μg/ml geneticin and 50 μg/ml hygromycin) and HEK-Gqi5 cells stable expressing FPR1 were cultured in (DMEM high glucose, 10% FBS, 1% PSA, 400 μg/ml geneticin and 50 μg/ml hygromycin). In general, the day before the experiment, 18,000 cells/well were plated in a 384-well clear bottom poly-d-lysine coated plate. The following day the screening compound-induced calcium activity was assayed on the FLIPR^Tetra. The drug plates were prepared in 384-well microplates using the EP3 and the MultiPROBE robotic liquid handling systems. Compounds were tested at concentrations ranging from 0.61 to 10,000 nM. Results are expressed as EC50 (nM) and efficacy values."}
{"smiles": "N#Cc1ccc(C2Cc3ccc(NC(=O)Nc4ccc(Br)cc4)cc3C(=O)N2CCCN)cc1", "note": "(stereo not drawn) [Compound 6, 1-[2-(3-aminopropyl)-3-(4-cyanophenyl)-1-oxo-1,2,3,4-tetrahydroisoquinolin-7-yl]-3-(4-bromophenyl)urea]", "values": [{"measurement": "FPRL-1 Ga16-CHO (eff)", "value": "(1.00)"}, {"measurement": "EC50", "value": 31, "unit": "nM"}]}
{"smiles": "CS(=O)(=O)c1ccc(NC(=O)Nc2ccc3c(c2)C(=O)N(CCCN)[C@H](c2ccc(C#N)cc2)C3)cc1", "note": "[Compound 14, (S)-1-[2-(3-aminopropyl)-3-(4-cyanophenyl)-1-oxo-1,2,3,4-tetrahydroisoquinolin-7-yl]-3-[4-(methylsulfonyl)phenyl]urea]", "values": [{"measurement": "FPRL-1 Ga16-CHO (eff)", "value": "(1.3)"}]}
{"smiles": "CSc1ccc(NC(=O)Nc2ccc3c(c2)C(=O)N(CCc2c[nH]cn2)C(c2ccc(Cl)o2)C3)cc1", "note": "(stereo not drawn) [Compound 24, 1-{3-(5-chloro-2-furyl)-2-[2-(1H-imidazol-4-yl)ethyl]-1-oxo-1,2,3,4-tetrahydroisoquinolin-7-yl}-3-[4-(methylthio)phenyl]urea]", "values": [{"measurement": "FPRL-1 Ga16-CHO (eff)", "value": "(0.81)"}, {"measurement": "EC50", "value": 17, "unit": "nM"}]}
{"smiles": "CC(=O)c1ccc(NC(=O)Nc2ccc3c(c2)C(=O)N(CCN)C(c2ccc(C#N)cc2)C3)cc1", "note": "(stereo not drawn) [Compound 2, 1-(4-acetylphenyl)-3-[2-(2-aminoethyl)-3-(4-cyanophenyl)-1-oxo-1,2,3,4-tetrahydroisoquinolin-7-yl]urea]", "values": [{"measurement": "FPRL-1 Ga16-CHO (eff)", "value": "(0.90)"}, {"measurement": "EC50", "value": 34, "unit": "nM"}]}
{"smiles": "CSc1ccc(NC(=O)Nc2ccc3c(c2)C(=O)N(CCCN)[C@@H](c2ccc(C#N)cc2)C3)cc1", "note": "[Compound 11, (R)-1-[2-(3-aminopropyl)-3-(4-cyanophenyl)-1-oxo-1,2,3,4-tetrahydroisoquinolin-7-yl]-3-[4-(methylthio)phenyl]urea]", "values": [{"measurement": "FPRL-1 Ga16-CHO (eff)", "value": "(0.97)"}, {"measurement": "EC50", "value": 3.3, "unit": "nM"}]}
